Earlier results in patent US20090137633A1, “Stable pharmaceutical composition of rabeprazole” (priority 2003, published 2009).
Counter-ions that a name gives are not always drawn.

What was measured:
[1] = target: T1, gastric H^+ K^+ ATPase enzyme system (proton pump) (Homo sapiens, UniProt P20648); conditions: in vivo
T1 construct: at the secretory surface of the gastric parietal cell; host or cells: gastric parietal cell (in vivo)
T1 sequence (P20648 whole entry): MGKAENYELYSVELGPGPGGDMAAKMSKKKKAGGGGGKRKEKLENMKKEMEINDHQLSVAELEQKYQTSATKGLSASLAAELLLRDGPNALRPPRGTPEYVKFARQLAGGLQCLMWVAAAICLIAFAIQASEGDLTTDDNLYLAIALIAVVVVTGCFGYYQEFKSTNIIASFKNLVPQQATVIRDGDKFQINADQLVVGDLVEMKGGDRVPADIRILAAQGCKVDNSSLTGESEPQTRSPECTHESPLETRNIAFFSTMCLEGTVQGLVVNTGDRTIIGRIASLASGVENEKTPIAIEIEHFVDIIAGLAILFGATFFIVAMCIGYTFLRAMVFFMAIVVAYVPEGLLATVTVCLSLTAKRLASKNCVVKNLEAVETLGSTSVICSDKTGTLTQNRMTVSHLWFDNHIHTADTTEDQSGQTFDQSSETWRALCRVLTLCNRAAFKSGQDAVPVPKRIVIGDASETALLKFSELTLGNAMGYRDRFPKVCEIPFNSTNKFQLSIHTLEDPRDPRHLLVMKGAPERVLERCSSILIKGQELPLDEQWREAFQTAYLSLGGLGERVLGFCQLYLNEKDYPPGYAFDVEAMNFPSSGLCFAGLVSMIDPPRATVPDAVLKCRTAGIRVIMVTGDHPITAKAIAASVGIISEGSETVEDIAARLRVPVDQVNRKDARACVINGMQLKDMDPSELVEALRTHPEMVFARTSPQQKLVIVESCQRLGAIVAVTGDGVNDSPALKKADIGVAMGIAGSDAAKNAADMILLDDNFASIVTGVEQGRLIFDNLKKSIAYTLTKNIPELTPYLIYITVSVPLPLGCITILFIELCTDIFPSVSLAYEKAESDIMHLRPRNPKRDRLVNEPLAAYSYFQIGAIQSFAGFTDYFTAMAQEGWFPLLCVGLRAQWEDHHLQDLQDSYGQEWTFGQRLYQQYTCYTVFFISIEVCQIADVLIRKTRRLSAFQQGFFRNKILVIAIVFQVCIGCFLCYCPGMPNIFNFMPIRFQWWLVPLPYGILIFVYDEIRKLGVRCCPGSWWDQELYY
T1 sequence (P51164 whole entry partner): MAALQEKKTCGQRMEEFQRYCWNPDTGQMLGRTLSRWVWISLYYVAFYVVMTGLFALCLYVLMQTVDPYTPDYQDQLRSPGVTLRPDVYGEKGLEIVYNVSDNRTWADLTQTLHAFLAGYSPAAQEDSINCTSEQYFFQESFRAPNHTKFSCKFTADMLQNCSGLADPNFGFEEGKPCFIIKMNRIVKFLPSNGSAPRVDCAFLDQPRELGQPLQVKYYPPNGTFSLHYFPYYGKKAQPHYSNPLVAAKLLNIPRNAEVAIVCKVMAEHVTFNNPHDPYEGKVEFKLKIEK

oral bioavalability: about 50%
effect on intragastric pH in relation to cytochrome P450 2C19 genotype [1]: unaffected
SMILES: COCCCOc1ccnc(C[S+]([O-])c2nc3ccccc3[nH]2)c1C (centres unmarked) [rabeprazole, 2-{[[4-(3-methoxypropoxy)-3-methyl]-2-pyridinyl]sulfinyl}-1H-benzimidazole sodium salt]
